Assays:
CCRF-CEM = test: NCI single dose (10 µM) SRB screen; type: cell-based, human; settings: leukaemia, 48 h
HL-60(TB) = test: NCI single dose (10 µM) SRB screen; type: cell-based, human; settings: leukaemia, 48 h
K-562 = test: NCI single dose (10 µM) SRB screen; type: cell-based, human; settings: leukaemia, 48 h
MOLT-4 = test: NCI single dose (10 µM) SRB screen; type: cell-based, human; settings: leukaemia, 48 h
RPMI-8226 = test: NCI single dose (10 µM) SRB screen; type: cell-based, human; settings: leukaemia, 48 h
SR = test: NCI single dose (10 µM) SRB screen; type: cell-based, human; settings: leukaemia, 48 h
A549/ATCC = test: NCI single dose (10 µM) SRB screen; type: cell-based, human; settings: non-small cell lung cancer, 48 h
EKVX = test: NCI single dose (10 µM) SRB screen; type: cell-based, human; settings: non-small cell lung cancer, 48 h
HOP-62 = test: NCI single dose (10 µM) SRB screen; type: cell-based, human; settings: non-small cell lung cancer, 48 h
HOP-92 = test: NCI single dose (10 µM) SRB screen; type: cell-based, human; settings: non-small cell lung cancer, 48 h
NCI-H226 = test: NCI single dose (10 µM) SRB screen; type: cell-based, human; settings: non-small cell lung cancer, 48 h
NCI-H23 = test: NCI single dose (10 µM) SRB screen; type: cell-based, human; settings: non-small cell lung cancer, 48 h
NCI-H322M = test: NCI single dose (10 µM) SRB screen; type: cell-based; settings: non-small cell lung cancer, 48 h
NCI-H460 = test: NCI single dose (10 µM) SRB screen; type: cell-based, human; settings: non-small cell lung cancer, 48 h
NCI-H522 = test: NCI single dose (10 µM) SRB screen; type: cell-based, human; settings: non-small cell lung cancer, 48 h
COLO 205 = test: NCI single dose (10 µM) SRB screen; type: cell-based, human; settings: colon cancer, 48 h
HCC-2998 = test: NCI single dose (10 µM) SRB screen; type: cell-based, human; settings: colon cancer, 48 h
HCT-116 = test: NCI single dose (10 µM) SRB screen; type: cell-based, human; settings: colon cancer, 48 h
HCT-15 = test: NCI single dose (10 µM) SRB screen; type: cell-based, human; settings: colon cancer, 48 h
HT29 = test: NCI single dose (10 µM) SRB screen; type: cell-based, human; settings: colon cancer, 48 h
KM12 = test: NCI single dose (10 µM) SRB screen; type: cell-based, human; settings: colon cancer, 48 h
SW-620 = test: NCI single dose (10 µM) SRB screen; type: cell-based, human; settings: colon cancer, 48 h
SF-268 = test: NCI single dose (10 µM) SRB screen; type: cell-based, human; settings: CNS cancer, 48 h
SF-295 = test: NCI single dose (10 µM) SRB screen; type: cell-based, human; settings: CNS cancer, 48 h
SF-539 = test: NCI single dose (10 µM) SRB screen; type: cell-based, human; settings: CNS cancer, 48 h
SNB-19 = test: NCI single dose (10 µM) SRB screen; type: cell-based, human; settings: CNS cancer, 48 h
SNB-75 = test: NCI single dose (10 µM) SRB screen; type: cell-based, human; settings: CNS cancer, 48 h
U251 = test: NCI single dose (10 µM) SRB screen; type: cell-based, human; settings: CNS cancer, 48 h
LOX IMVI = test: NCI single dose (10 µM) SRB screen; type: cell-based, human; settings: melanoma, 48 h
MALME-3M = test: NCI single dose (10 µM) SRB screen; type: cell-based, human; settings: melanoma, 48 h
M14 = test: NCI single dose (10 µM) SRB screen; type: cell-based, human; settings: melanoma, 48 h
MDA-MB-435 = test: NCI single dose (10 µM) SRB screen; type: cell-based, human; settings: melanoma, 48 h
SK-MEL-2 = test: NCI single dose (10 µM) SRB screen; type: cell-based, human; settings: melanoma, 48 h
SK-MEL-28 = test: NCI single dose (10 µM) SRB screen; type: cell-based, human; settings: melanoma, 48 h
SK-MEL-5 = test: NCI single dose (10 µM) SRB screen; type: cell-based, human; settings: melanoma, 48 h
UACC-257 = test: NCI single dose (10 µM) SRB screen; type: cell-based, human; settings: melanoma, 48 h
UACC-62 = test: NCI single dose (10 µM) SRB screen; type: cell-based, human; settings: melanoma, 48 h
IGROV1 = test: NCI single dose (10 µM) SRB screen; type: cell-based, human; settings: ovarian cancer, 48 h
OVCAR-3 = test: NCI single dose (10 µM) SRB screen; type: cell-based, human; settings: ovarian cancer, 48 h
OVCAR-4 = test: NCI single dose (10 µM) SRB screen; type: cell-based, human; settings: ovarian cancer, 48 h
OVCAR-5 = test: NCI single dose (10 µM) SRB screen; type: cell-based, human; settings: ovarian cancer, 48 h
OVCAR-8 = test: NCI single dose (10 µM) SRB screen; type: cell-based, human; settings: ovarian cancer, 48 h
NCI/ADR-RES = test: NCI single dose (10 µM) SRB screen; type: cell-based, human; settings: ovarian cancer, 48 h
SK-OV-3 = test: NCI single dose (10 µM) SRB screen; type: cell-based, human; settings: ovarian cancer, 48 h
786-0 = test: NCI single dose (10 µM) SRB screen; type: cell-based, human; settings: renal cancer, 48 h
A498 = test: NCI single dose (10 µM) SRB screen; type: cell-based, human; settings: renal cancer, 48 h
ACHN = test: NCI single dose (10 µM) SRB screen; type: cell-based, human; settings: renal cancer, 48 h
CAKI-1 = test: NCI single dose (10 µM) SRB screen; type: cell-based, human; settings: renal cancer, 48 h
RXF 393 = test: NCI single dose (10 µM) SRB screen; type: cell-based, human; settings: renal cancer, 48 h
SN12C = test: NCI single dose (10 µM) SRB screen; type: cell-based, human; settings: renal cancer, 48 h
TK-10 = test: NCI single dose (10 µM) SRB screen; type: cell-based, human; settings: renal cancer, 48 h
UO-31 = test: NCI single dose (10 µM) SRB screen; type: cell-based, human; settings: renal cancer, 48 h
PC-3 = test: NCI single dose (10 µM) SRB screen; type: cell-based, human; settings: prostate cancer, 48 h
DU-145 = test: NCI single dose (10 µM) SRB screen; type: cell-based, human; settings: prostate cancer, 48 h
MCF7 = test: NCI single dose (10 µM) SRB screen; type: cell-based, human; settings: breast cancer, 48 h
MDA-MB-231 = test: NCI single dose (10 µM) SRB screen; type: cell-based, human; settings: breast cancer, 48 h
HS578T = test: NCI single dose (10 µM) SRB screen; type: cell-based, human; settings: breast cancer, 48 h
BT-549 = test: NCI single dose (10 µM) SRB screen; type: cell-based, human; settings: breast cancer, 48 h
T-47D = test: NCI single dose (10 µM) SRB screen; type: cell-based, human; settings: breast cancer, 48 h
MDA-MB-468 = test: NCI single dose (10 µM) SRB screen; type: cell-based, human; settings: breast cancer, 48 h
NCI 60 cancer cell lines = test: NCI single dose (10 µM) SRB screen, mean over panel; type: cell-based, human; settings: mean over 60 cell lines, 48 h
Staphylococcus aureus = test: Agar well diffusion method
Bacillus subtilis = test: Agar well diffusion method; settings: relative to ciprofloxacin
Escherichia coli = test: Agar well diffusion method; settings: relative to ciprofloxacin
Pseudomonas aeruginosa = test: Agar well diffusion method; settings: relative to ciprofloxacin
Candida albicans = test: Agar well diffusion method; settings: relative to clotrimazole
Aspergillus flavus = test: Agar well diffusion method

## Diethyl 4-(3-cyanophenyl)-2,6-dipropyl-1,4-dihydropyridine-3,5-dicarboxylate [Compound 1h]
CCRF-CEM
  GI% CCRF-CEM: 24%
HL-60(TB)
  GI% HL-60(TB): – (Only GI% ≥ 10 are shown)
K-562
  GI% K-562: 31%
MOLT-4
  GI% MOLT-4: 38%
RPMI-8226
  GI% RPMI-8226: 34%
SR
  GI% SR: 32%
A549/ATCC
  GI% A549/ATCC: 21%
EKVX
  GI% EKVX: 21%
HOP-62
  GI% HOP-62: – (Only GI% ≥ 10 are shown)
HOP-92
  GI% HOP-92: 29%
NCI-H226
  GI% NCI-H226: 26%
NCI-H23
  GI% NCI-H23: – (Only GI% ≥ 10 are shown)
NCI-H322M
  GI% NCI-H322M: – (Only GI% ≥ 10 are shown)
NCI-H460
  GI% NCI-H460: – (Only GI% ≥ 10 are shown)
NCI-H522
  GI% NCI-H522: 20%
COLO 205
  GI% COLO 205: – (Only GI% ≥ 10 are shown)
HCC-2998
  GI% HCC-2998: – (Only GI% ≥ 10 are shown)
HCT-116
  GI% HCT-116: 30%
HCT-15
  GI% HCT-15: 17%
HT29
  GI% HT29: 12%
KM12
  GI% KM12: – (Only GI% ≥ 10 are shown)
SW-620
  GI% SW-620: – (Only GI% ≥ 10 are shown)
SF-268
  GI% SF-268: 22%
SF-295
  GI% SF-295: 11%
SF-539
  GI% SF-539: 14%
SNB-19
  GI% SNB-19: – (Only GI% ≥ 10 are shown)
SNB-75
  GI% SNB-75: 42%
U251
  GI% U251: – (Only GI% ≥ 10 are shown)
LOX IMVI
  GI% LOX IMVI: – (Only GI% ≥ 10 are shown)
MALME-3M
  GI% MALME-3M: – (Only GI% ≥ 10 are shown)
M14
  GI% M14: – (Only GI% ≥ 10 are shown)
MDA-MB-435
  GI% MDA-MB-435: – (Only GI% ≥ 10 are shown)
SK-MEL-2
  GI% SK-MEL-2: – (Only GI% ≥ 10 are shown)
SK-MEL-28
  GI% SK-MEL-28: – (Only GI% ≥ 10 are shown)
SK-MEL-5
  GI% SK-MEL-5: 31%
UACC-257
  GI% UACC-257: – (Only GI% ≥ 10 are shown)
UACC-62
  GI% UACC-62: 19%
IGROV1
  GI% IGROV1: 10%
OVCAR-3
  GI% OVCAR-3: – (Only GI% ≥ 10 are shown)
OVCAR-4
  GI% OVCAR-4: 32%
OVCAR-5
  GI% OVCAR-5: – (Only GI% ≥ 10 are shown)
OVCAR-8
  GI% OVCAR-8: – (Only GI% ≥ 10 are shown)
NCI/ADR-RES
  GI% NCI/ADR-RES: 18%
SK-OV-3
  GI% SK-OV-3: – (Only GI% ≥ 10 are shown)
786-0
  GI% 786-0: 16%
A498
  GI% A498: 18%
ACHN
  GI% ACHN: – (Only GI% ≥ 10 are shown)
CAKI-1
  GI% CAKI-1: 30%
RXF 393
  GI% RXF 393: 18%
SN12C
  GI% SN12C: – (Only GI% ≥ 10 are shown)
TK-10
  GI% TK-10: – (Only GI% ≥ 10 are shown)
UO-31
  GI% UO-31: 19%
PC-3
  GI% PC-3: 47%
DU-145
  GI% DU-145: – (Only GI% ≥ 10 are shown)
MCF7
  GI% MCF7: 25%
MDA-MB-231
  GI% MDA-MB-231: – (Only GI% ≥ 10 are shown)
HS578T
  GI% HS578T: 18%
BT-549
  GI% BT-549: 14%
T-47D
  GI% T-47D: 32%
MDA-MB-468
  GI% MDA-MB-468: 20%
NCI 60 cancer cell lines
  Mean GI%: 14%
Staphylococcus aureus; 1 mg/mL in DMSO, 24 h, 36 °C
  Diameter of inhibition zone, S. aureus: 7 mm
Staphylococcus aureus; relative to ciprofloxacin
  % activity index, S. aureus: 29.2%
Bacillus subtilis
  % activity index, B. subtilis: – (Values below 25 are of limited value and not shown as they refer either to inactive or non-diffusing compounds)
Escherichia coli
  % activity index, E. coli: – (Values below 25 are of limited value and not shown as they refer either to inactive or non-diffusing compounds)
Pseudomonas aeruginosa
  % activity index, P. aeruginosa: – (Values below 25 are of limited value and not shown as they refer either to inactive or non-diffusing compounds)
Candida albicans
  % activity index, C. albicans: – (Values below 25 are of limited value and not shown as they refer either to inactive or non-diffusing compounds)
Aspergillus flavus; 1 mg/mL in DMSO, 24 h, 36 °C
  Diameter of inhibition zone, A. flavus: 8 mm
Aspergillus flavus; relative to clotrimazole
  % activity index, A. flavus: 32%

Source: paper PMC9481151, “Discovery of new symmetrical and asymmetrical nitrile-containing 1,4-dihydropyridine derivatives as dual kinases and P-glycoprotein inhibitors: synthesis, in vitro assays, and in silico studies” (Journal of Enzyme Inhibition and Medicinal Chemistry, 2022)
